Assay results published in the NIST ThermoML archive (doi:10.1016/j.jct.2010.01.016).
± gives the expanded uncertainty stated by the source.

Experiments:
[1] = excess molar enthalpy (molar enthalpy of mixing); xn = mol fraction of the nth substance listed; conditions: 303.15 K, 101 kPa, Liquid, Calvet calorimetry
[2] = Liquid; for vapor or sublimation pressure: Closed cell (Static) method; for mass density: 298.15 K, 101.33 kPa, Vibrating tube method

CCN(CC)CCCN [N,N-diethylpropane-1,3-diamine] + C1CCCCC1
[1]
Conditions	excess molar enthalpy [kcal/mol]
x1 = 0.1022	0.141 ± 0.00574
x1 = 0.2027	0.209 ± 0.0086
x1 = 0.3028	0.245 ± 0.01
x1 = 0.3197	0.247 ± 0.01
x1 = 0.3519	0.251 ± 0.0103
x1 = 0.3953	0.255 ± 0.0105
x1 = 0.407	0.257 ± 0.0105
x1 = 0.4449	0.257 ± 0.0105
x1 = 0.4943	0.254 ± 0.0103
x1 = 0.5061	0.255 ± 0.0103
x1 = 0.5307	0.248 ± 0.01
x1 = 0.5351	0.248 ± 0.01
x1 = 0.5595	0.243 ± 0.0098
x1 = 0.5741	0.239 ± 0.0098
x1 = 0.6073	0.228 ± 0.00932
x1 = 0.6523	0.21 ± 0.0086
x1 = 0.7017	0.187 ± 0.00765
x1 = 0.7997	0.131 ± 0.00526
x1 = 0.8696	0.0837 ± 0.00335

CCN(CC)CCCN [N,N-diethylpropane-1,3-diamine]
[2]
Conditions	vapor or sublimation pressure [kPa]
273.15 K	0.031 ± 0.001
283.15 K	0.073 ± 0.002
293.15 K	0.155 ± 0.004
303.15 K	0.31 ± 0.007
313.15 K	0.586 ± 0.013
323.15 K	1.053 ± 0.023
333.15 K	1.809 ± 0.015
343.15 K	2.987 ± 0.022
353.15 K	4.759 ± 0.033
363.15 K	7.346 ± 0.049

Conditions	mass density [kg/m3]
[2]	821.363 ± 0.3

C1CCCCC1 [cyclohexane]
[2]
Conditions	vapor or sublimation pressure [kPa]
273.15 K	3.726 ± 0.028
283.15 K	6.352 ± 0.044
293.15 K	10.36 ± 0.07
303.15 K	16.26 ± 0.11
313.15 K	24.65 ± 0.16
323.15 K	36.24 ± 0.23
333.15 K	51.85 ± 0.33
343.15 K	72.4 ± 0.46
353.15 K	98.87 ± 0.63
363.15 K	132.35 ± 0.84

Conditions	mass density [kg/m3]
[2]	774.1 ± 0.3
